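Tested at 5 concentrations; 48 h exposure; 96-well plates; endpoints linearly interpolated, else capped at highest concentration. GI50 = concentration required for 50% inhibition of growth.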 The source made the active and inactive calls. Cut-off read from the data, not from the text of the source: active = GI50 up to about 1.1 µM and inactive = higher.
Experiments:
Experiment in all cases: inhibition of tumour cell growth, NCI panel, 48 h
786-0 = system: 786-0
A549 = system: A549
CAKI-1 = system: CAKI-1
HCC 2998 = system: HCC 2998
HOP-62 = system: HOP-62
HT-29 = system: HT-29
Hs-578T = system: Hs-578T
LOX IMVI = system: LOX IMVI
Malme-3M = system: Malme-3M
NCI-H522 = system: NCI-H522
OVCAR-3 = system: OVCAR-3
PC-3 = system: PC-3
RPMI-8226 = system: RPMI-8226
SK-MEL-2 = system: SK-MEL-2
SNB-19 = system: SNB-19
SW-620 = system: SW-620
T47D = system: T47D
TK-10 = system: TK-10
UACC-62 = system: UACC-62
UO-31 = system: UO-31

Compound | GI50 (786-0) | GI50 (A549) | GI50 (CAKI-1) | GI50 (HCC 2998) | GI50 (HOP-62) | GI50 (HT-29) | GI50 (Hs-578T) | GI50 (LOX IMVI) | GI50 (Malme-3M) | GI50 (NCI-H522) | GI50 (OVCAR-3) | GI50 (PC-3) | GI50 (RPMI-8226) | GI50 (SK-MEL-2) | GI50 (SNB-19) | GI50 (SW-620) | GI50 (T47D) | GI50 (TK-10) | GI50 (UACC-62) | GI50 (UO-31)
CCOC(=O)C(C(=O)OCC)C1C=CCC2c3ccccc3COCC21 (stereo not given) | > 100 µM (inactive) | 66.5 µM (inactive) | 26.5 µM (inactive) | 52.5 µM (inactive) | > 100 µM (inactive) | 54.7 µM (inactive) | 73.8 µM (inactive) | 44.2 µM (inactive) | 31.7 µM (inactive) | 24.5 µM (inactive) | 65.5 µM (inactive) | 42.6 µM (inactive) | 41.5 µM (inactive) | 41.4 µM (inactive) | > 100 µM (inactive) | 52.7 µM (inactive) | 30.2 µM (inactive) | 98.2 µM (inactive) | 26.1 µM (inactive) | 43.9 µM (inactive)
O=C(NO)NCCCl | > 100 µM (inactive) | > 100 µM (inactive) | > 100 µM (inactive) | > 100 µM (inactive) | > 100 µM (inactive) | > 100 µM (inactive) | > 100 µM (inactive) | > 100 µM (inactive) | > 100 µM (inactive) | > 100 µM (inactive) | > 100 µM (inactive) | > 100 µM (inactive) | > 100 µM (inactive) | > 100 µM (inactive) | > 100 µM (inactive) | > 100 µM (inactive) | > 100 µM (inactive) | > 100 µM (inactive) | > 100 µM (inactive) | > 100 µM (inactive)
COc1cc(OC)cc(C(=O)NC2=C(Cl)C(=O)c3ccccc3C2=O)c1 | 2.96 µM (inactive) | 4.34 µM (inactive) | 5.4 µM (inactive) | 3.48 µM (inactive) | 12.8 µM (inactive) | 4.67 µM (inactive) | 3.3 µM (inactive) | 1.99 µM (inactive) | 1.74 µM (inactive) | 0.728 µM (active) | 1.88 µM (inactive) | 1.23 µM (inactive) | 0.706 µM (active) | 1.65 µM (inactive) | 5.5 µM (inactive) | 1.01 µM (active) | 1.46 µM (inactive) | 2.81 µM (inactive) | 0.361 µM (active) | 3.15 µM (inactive)
CC(C)C(=O)C(C)(C)CCc1ccccn1 | > 100 µM (inactive) | > 100 µM (inactive) | > 100 µM (inactive) | > 100 µM (inactive) | > 100 µM (inactive) | > 100 µM (inactive) | > 100 µM (inactive) | > 100 µM (inactive) | > 100 µM (inactive) | > 100 µM (inactive) | > 100 µM (inactive) | > 100 µM (inactive) | > 100 µM (inactive) | > 100 µM (inactive) | > 100 µM (inactive) | > 100 µM (inactive) | > 100 µM (inactive) | > 100 µM (inactive) | > 100 µM (inactive) | > 100 µM (inactive)
Cc1n2nc(N)sc2n[n+]1CC(=O)c1ccccc1 | > 100 µM (inactive) | > 100 µM (inactive) | > 100 µM (inactive) | > 100 µM (inactive) | > 100 µM (inactive) | > 100 µM (inactive) | > 100 µM (inactive) | > 100 µM (inactive) | > 100 µM (inactive) | > 100 µM (inactive) | > 100 µM (inactive) | > 100 µM (inactive) | > 100 µM (inactive) | > 100 µM (inactive) | > 100 µM (inactive) | > 100 µM (inactive) | > 100 µM (inactive) | > 100 µM (inactive) | 14 µM (inactive) | > 100 µM (inactive)
O=P(O)(O)CN1CCNCCN(CP(=O)(O)O)CC1 | 23 µM (inactive) | 15.2 µM (inactive) | > 90.6 µM (inactive) | 12.3 µM (inactive) | > 100 µM (inactive) | 4.26 µM (inactive) | > 100 µM (inactive) | 25.9 µM (inactive) | > 37.3 µM (inactive) | 19.9 µM (inactive) | > 62.7 µM (inactive) | 52.4 µM (inactive) | 20.4 µM (inactive) | 46 µM (inactive) | > 100 µM (inactive) | 19.3 µM (inactive) | > 68.4 µM (inactive) | > 49.4 µM (inactive) | 38.8 µM (inactive) | > 100 µM (inactive)
COC(=O)C1=C(C(=O)OC)N(c2ccc(OC)cc2[N+](=O)[O-])C(c2ccc(C)cc2)=CC1c1ccc(OC)cc1OC (stereo not given) | 11.9 µM (inactive) | 7.89 µM (inactive) | 28 µM (inactive) | 8.28 µM (inactive) | 26.4 µM (inactive) | 6.53 µM (inactive) | 31.7 µM (inactive) | 2.36 µM (inactive) | 22.2 µM (inactive) | 14.1 µM (inactive) | 23.6 µM (inactive) | 47.6 µM (inactive) | 2.07 µM (inactive) | 29.6 µM (inactive) | 34.7 µM (inactive) | 3.88 µM (inactive) | 11.1 µM (inactive) | 18.5 µM (inactive) | 25.2 µM (inactive) | 11.7 µM (inactive)
C=C1CC2(CC(c3ccccc3Cl)OC(c3ccccc3Cl)C2)OC1=O (stereo not given) | 2 µM (inactive) | 7.74 µM (inactive) | 2 µM (inactive) | 3.52 µM (inactive) | 8.05 µM (inactive) | 2.55 µM (inactive) | 1.88 µM (inactive) | 1.38 µM (inactive) | 3.57 µM (inactive) | 1.72 µM (inactive) | 2.91 µM (inactive) | 2.89 µM (inactive) | 0.752 µM (active) | 3.43 µM (inactive) | 15.2 µM (inactive) | 1.98 µM (inactive) | 1.68 µM (inactive) | 4.33 µM (inactive) | 1.94 µM (inactive) | 5.89 µM (inactive)
N#Cc1cccc(Nc2ccccc2SSc2ccccc2Nc2cccc(C#N)c2)c1 | 3.91 µM (inactive) | 11.3 µM (inactive) | 9.02 µM (inactive) | 16.6 µM (inactive) | 11.9 µM (inactive) | 11.4 µM (inactive) | 6.97 µM (inactive) | 2.73 µM (inactive) | 11 µM (inactive) | 8.11 µM (inactive) | 9.12 µM (inactive) | 4.82 µM (inactive) | 3.93 µM (inactive) | > 10 µM (inactive) | 7.76 µM (inactive) | 3.48 µM (inactive) | 12.3 µM (inactive) | 19.3 µM (inactive) | 7.1 µM (inactive) | 4.97 µM (inactive)
Nc1ccccc1N/C(=C\C(=O)C(Cl)(Cl)Cl)c1ccccc1 | 20.4 µM (inactive) | 28.8 µM (inactive) | 34.5 µM (inactive) | 17.3 µM (inactive) | 23.6 µM (inactive) | 27.4 µM (inactive) | 29.6 µM (inactive) | 19.5 µM (inactive) | 16.8 µM (inactive) | 15.3 µM (inactive) | 22.5 µM (inactive) | 22.5 µM (inactive) | 23.1 µM (inactive) | 14.1 µM (inactive) | 36.9 µM (inactive) | 28.8 µM (inactive) | 20.7 µM (inactive) | 65 µM (inactive) | 17.5 µM (inactive) | 17.2 µM (inactive)
CCSc1nnc(Sc2c3ccccc3nc3ccccc23)s1 | 2.84 µM (inactive) | > 60.7 µM (inactive) | 5.33 µM (inactive) | 11.8 µM (inactive) | > 58.6 µM (inactive) | 7.67 µM (inactive) | 32.7 µM (inactive) | 6.7 µM (inactive) | 7.01 µM (inactive) | 2.37 µM (inactive) | 13.1 µM (inactive) | 20.3 µM (inactive) | 3.91 µM (inactive) | 22.3 µM (inactive) | 44.2 µM (inactive) | 5.45 µM (inactive) | 4.22 µM (inactive) | 6.18 µM (inactive) | 15 µM (inactive) | 10.7 µM (inactive)
